The source of these data is PMC8279415, “Targeting Acute Myelogenous Leukemia Using Potent Human Dihydroorotate Dehydrogenase Inhibitors Based on the 2-Hydroxypyrazolo[1,5-a]pyridine Scaffold: SAR of the Biphenyl Moiety” (Journal of Medicinal Chemistry, 2021).

The conditions of data set [1]: cited from earlier work.
The conditions of data set [2]: cited from earlier work. This is another data set of the same source.
On the set-up of data set [3]: method as in doi:10.1158/1538-7445.AM2019-2. The following applies: cited from earlier work.
Data set [4] deals with THP1 cells. Description: Annexin V apoptosis assay in THP1. As to conditions: Homo sapiens, THP-1, 72 h, read-out: apoptosis EC50 THP1 (CL 95%).
The test system of another data set is Jurkat cells. Briefly: CFSE-based cytotoxic activity assay. As to conditions: concentration inducing cytotoxicity ≥30%, 3 days.
Data set [5] deals with THP1 cells. Briefly: Differentiation assay (CD14 expression) in THP1. The following applies: Homo sapiens, THP-1, 72 h, read-out: differentiation EC50 THP1 (CL 95%).

Each structure is given as a SMILES string. pEC50: −log10 of the molar value.

Turning to `COc1cccc(-c2cc(F)c(Nc3ncccc3C(=O)O)c(F)c2)c1` [ASLAN003], the “protein binding (% bond)” value in data set [1] was >99[25] %.

As usually defined, the pEC50 is the negative decadic logarithm of the EC50, by convention in mol/L. On to `CCn1c(CO)nn(-c2cc(O[C@@H](C)C(F)(F)F)c(C(=O)Nc3c(F)cccc3Cl)cc2F)c1=O` [BAY-2402234, reference compound], for which the “LogD^7.4” value in data set [2] is 2.7[27]. For the same compound, in data set [3], the “solubility in PBS” value is <1[31] μM. The pEC50 in the data set with THP1 cells [4] is 8.47; in the data set on THP1 cells [5], 8.62. Further, in the data set with Jurkat cells, the “cytoxicity Jurkat (effect ≥30% ± SD)” value stood at 36 ± 4 µM.
